Laboratory results published in patent publication US20220064196A1, “EGFR Inhibitors, Compositions and Methods Thereof” (Betta Pharmaceuticals Co., Ltd., priority 2019, published 2022).
Read-outs that look alike come from different tables or passages of the source.

Tests used:
Ba/F3-Del19/T790M/C797S = Ba/F3-Del19/T790M/C797S (Homo sapiens, UniProt P00533, T790M/C797S, cells depend on it, form not given); test: Ba/F3-Del19/T790M/C797S cells proliferation assay (CellTiter Glo); format: cell-based; conditions: cell proliferation, 72 h, read-out: Ba/F3-Del19/T790M/C797S IC50
Experimental: (§1) a) The medium was preheated in a 37°0 C. water bath in advance.
(§2) b) Remove the cryogenic vials from the liquid nitrogen tank, quickly put it into a 37° C. water bath, and completely melt it in 1 min.
(§3) c) Transfer the cell suspension to a 15 mL centrifuge tube containing 8 mL medium, centrifuge 1000 rpm, 5 min.
(§4) d) Discard the supernatant, resuspend the cells in 1 mL medium, and transfer to a 75 cm^2 flask containing 15 mL medium, culture the cells in an incubator at 37° C., 5% CO2.
(§5) a) The medium was preheated in a 37° C. water bath in advance.
(§6) b) Collect cell to a 15 mL centrifuged tube, centrifuge at 1000 rpm for 5 min. Discard the supernatant, count, and make the cell density at 1×10^4 cells/mL, then place it in a 37° C., 5% CO2 incubator.
(§7) a) The test compound (20 mM stock solution) was diluted to 200uM with 100% DMSO as starting concentration then 3-fold serial diluted with “9+0” concentrations. in a 96-well dilution plate (Cat # P-05525, Labcyte);
(§8) b) The above compound solution was diluted 1:20 times with culture medium to prepare a 10 fold working solution;
(§9) a) Take cells in log phase growth, centrifuge at 1000 rpm for 5 min, then resuspend the cells with culture medium, then count cells;
(§10) b) Cells were seeded to 96-well cell culture plate with density at 2000 cells/well;
(§11) a) Compounds prepared at step 2 were added to cell plate with 15 μL per well, the final concentrations were 1000,333, 111.1, 37,12.3, 4.1, 1.4, 0.5, 0.2 and 0 nM, and the final concentration of DMSO was 0.5%. The blank control well was a culture medium (0.5% DMSO);
(§12) b) The cells were incubated for an additional 72 h in the incubator.
(§13) a) Remove the 96-well cell culture plate and add 50 μl of CTG reagent (CellTiter Glo kit, promega, Cat # G7573).
(§14) b) Plate was shaked for 2 min and then let it cool for 10 min at room temperature.
(§15) c) The Luminescence signal value was read using a PerkinElmer reader. Experimental data analysis
(§16) Data were analyzed using GraphPad Prism 6.0 software to obtain a fitted curve of compound activity.
(§17) Fit the Compound IC50 from non-linear regression equation:
(§18) Y=Bottom+(Top-Bottom)/(1+10((LogIC50-X)×Hill Slope));
(§19) X: The log of the concentration of the compound; Y: Luminescence value.
(§20) The cells proliferation assay results are expressed with IC50, shown as Table 2.

Ba/F3-L858R/T790M/C797S = Ba/F3-L858R/T790M/C797S (Homo sapiens, UniProt P00533, T790M/C797S/L858R, cells depend on it); test: Ba/F3-L858R/T790M/C797S cells proliferation assay (CellTiter Glo); format: cell-based; conditions: cell proliferation, 72 h, read-out: Ba/F3-L858R/T790M/C797S IC50
Experimental: as §1, §2, §3, §4, §5, §6, §7, §8, §9, §10, §11, §12, §13, §14, §15, §16, §17, §18, §19, §20

EGFR WT = EGFR WT (Homo sapiens, UniProt P00533); test: Kinase assay (mobility shift), EGFR wildtype; format: biochemical; conditions: top concentration 300 nM
Experimental: (§21) Test 1 Kinase Assay for EGFR Del19/T790M/C797S and EGFR Wildtype
(§22) Enzyme reaction protocol are as follows:
(§23) 1. Preparing 1* Kinase buffer as followed.
(§24) 2. Preparing Compound Concentration Gradient: Compounds were tested at a concentration of 300 nM, diluted to 100-fold final concentration in 100% DMSO solution in 96-well plates, and compounds were diluted 3 times with Precision, 10 concentrations. Each concentration of the compound was then further diluted to a 5-fold final concentration of the intermediate dilution solution using 1* Kinase buffer.
(§25) 3.5 μL of each of the prepared intermediate dilution compounds was separately added to the compound wells of the 384-well plate, and each concentration was tested for duplicate wells; 5 μL of 5% DMSO was added to the negative control wells and the positive control wells, respectively.
(§26) 4. 2.5-fold final concentration of the kinase solution was prepared using 1*Kinase buffer.
(§27) 5. Add 10 μL of 2.5-fold final concentration of kinase solution to the compound well and positive control well; add 10 μL of 1*Kinase buffer to the negative control well.
(§28) 6. Centrifuge at 1000 rpm for 30 seconds, shake the reaction plate and incubate for 10 minutes at room temperature.
(§29) 7. A mixed solution of 2.5 times the final concentration of ATP and Kinase substrate (5-FAM-EEPLYWSFPAKKK-CONH2) was prepared using 1*Kinase buffer.
(§30) 8. 10 μL of a 2.5-fold final concentration of a mixed solution of ATP and a substrate was added to initiate the reaction.
(§31) 9. Centrifuge the 384-well plate at 1000 rpm for 30 seconds, mix by shaking, and incubate at room temperature for the corresponding time.
(§32) 10. Add 30 μL of the stop solution to stop the kinase reaction, centrifuge at 1000 rpm for 30 seconds, and mix by shaking.
(§33) 11. Read the conversion rate with Caliper EZ Reader.
(§34) Convert conversion values to inhibition values:
(§35) Percent inhibition 32 (max-conversion)/(max-min)*100.
(§36) “max” stands for the mean value of the positive control well ratio; “min” stands for the mean value of the negative control well.
(§37) Fit the data in log(inhibitor) vs. response Variable slope of GraphPad Prism 5 to obtain IC50 values.
(§38) Equation used is: Y=Bottom+(Top-Bottom)/(1+(IC50/X)^HillSlope)

EGFR L858R/T790M/C797S = EGFR L858R/T790M/C797S (Homo sapiens, UniProt P00533, C797S/L858R/T790M); test: Kinase assay (mobility shift), EGFR L858R/T790M/C797S; format: biochemical
Experimental: [Worded in the source for another variant; this variant is reported under the same test.] as §21, §22, §23, §24, §25, §26, §27, §28, §29, §30, §31, §32, §33, §34, §35, §36, §37, §38

A431 (WT) = test: A431 cells proliferation assay (CellTiter Glo); format: cell-based; conditions: Homo sapiens, A-431; cell proliferation, 72 h
Experimental: Test 4 A431 Cells Proliferation Assay
DMEM and 10% FBS and 1% PS.
as §5, §2, §3, §4, §6
a) The test compound (20 mM stock solution) was diluted to 2 mM with 100% DMSO as starting concentration then 3-fold serial diluted with “9+0” concentrations. in a 96-well dilution plate (Cat # P-05525, Labcyte);
b) The above compound solution was diluted 1:40 times with culture medium to prepare a 5 fold working solution;
as §9
b) Cells were seeded to 96-well cell culture plate with density at 5000 cells/well;
a) Compounds prepared at step 2 were added to cell plate with 40 μL per well, the final concentrations were 10000, 3333,1111.1, 370.4, 123.5, 41.2, 13.7, 4.6, 1.5 and 0 nM, and the final concentration of DMSO was 0.5%. The blank control well was a culture medium (0.5% DMSO);
as §12
a) Remove the 96-well cell culture plate and add 60 μl of CTG reagent (CellTiter Glo kit, promega, Cat # G7573).
as §14
c) The Luminescence signal value was read using a PerkinElmer reader.
Experimental Data Analysis
as §16, §17
Y=Bottom+(Top-Bottom)/(1+10((LogIC50-X)×HillSlope));
as §19
The cells proliferation assay results are expressed with IC50, shown as Table 3.

[1] = Pharmacokinetic assay, oral administration; format: in vivo; conditions: rat, male SD rats, p.o. 5 mg/kg, plasma, formulation differs per row
Experimental: Test 5 Pharmacokinetic Assay
Male SD rats, oral administration (intragastric administration), 3 in each group. Animals administered by gavage were fasted overnight before the experiment, and the fasting time was from at least 12 hours before administration to 4 hours after administration. The blood was collected using the orbital vein. Time of blood collection by oral administration: 15 min, 30 min, 1 h, 2 h, 4 h, 7 h, 24 h. The blood collection volume was 300 uL, and after anticoagulation with 2.0% EDTA, the blood was centrifuged at 4000 rpm for 5 min, and the blood plasma was taken for about 100 uL, and placed in −20° C. for examination. The plasma sample was analyzed using liquid chromatography tandem mass spectrometry (LC-MS/MS). Plasma concentration-time data for individual animals were analyzed using WinNonlin (V4.1, Pharsight) software with a non-compartmental model and the pharmacokinetic parameters of the test compounds were calculated.

EGFR L858R/T790M/C797S, sequence (P00533 25-1210 T790M/C797S/L858R): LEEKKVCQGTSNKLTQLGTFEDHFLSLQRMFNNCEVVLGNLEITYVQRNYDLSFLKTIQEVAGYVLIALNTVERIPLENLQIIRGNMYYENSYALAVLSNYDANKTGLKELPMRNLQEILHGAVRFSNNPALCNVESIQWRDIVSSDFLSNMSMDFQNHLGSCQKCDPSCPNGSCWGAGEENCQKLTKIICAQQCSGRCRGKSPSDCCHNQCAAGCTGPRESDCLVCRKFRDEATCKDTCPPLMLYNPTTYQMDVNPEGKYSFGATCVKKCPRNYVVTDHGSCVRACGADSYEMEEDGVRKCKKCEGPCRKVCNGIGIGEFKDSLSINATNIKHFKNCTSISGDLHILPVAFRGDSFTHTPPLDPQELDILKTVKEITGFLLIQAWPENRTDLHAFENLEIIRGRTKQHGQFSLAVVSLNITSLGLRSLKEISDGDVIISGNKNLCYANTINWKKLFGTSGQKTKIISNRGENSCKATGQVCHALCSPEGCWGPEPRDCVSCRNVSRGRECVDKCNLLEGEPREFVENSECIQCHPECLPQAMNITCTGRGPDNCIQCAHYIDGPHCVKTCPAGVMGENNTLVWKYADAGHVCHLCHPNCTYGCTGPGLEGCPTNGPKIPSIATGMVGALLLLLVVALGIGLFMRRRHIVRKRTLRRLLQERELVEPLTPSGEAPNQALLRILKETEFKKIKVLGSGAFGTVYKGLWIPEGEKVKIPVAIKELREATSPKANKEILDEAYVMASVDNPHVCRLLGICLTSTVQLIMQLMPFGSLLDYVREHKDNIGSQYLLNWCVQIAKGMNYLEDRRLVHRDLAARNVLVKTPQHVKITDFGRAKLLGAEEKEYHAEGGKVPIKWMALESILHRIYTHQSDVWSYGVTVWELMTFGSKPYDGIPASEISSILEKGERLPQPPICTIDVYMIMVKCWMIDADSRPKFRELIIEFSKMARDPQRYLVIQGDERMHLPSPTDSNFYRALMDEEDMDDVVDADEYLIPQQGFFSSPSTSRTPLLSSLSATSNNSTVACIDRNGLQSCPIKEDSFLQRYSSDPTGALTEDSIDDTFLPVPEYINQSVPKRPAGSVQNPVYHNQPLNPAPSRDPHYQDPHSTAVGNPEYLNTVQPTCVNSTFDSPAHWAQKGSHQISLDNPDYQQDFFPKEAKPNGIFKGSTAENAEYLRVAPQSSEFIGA
EGFR WT, sequence (P00533 25-1210): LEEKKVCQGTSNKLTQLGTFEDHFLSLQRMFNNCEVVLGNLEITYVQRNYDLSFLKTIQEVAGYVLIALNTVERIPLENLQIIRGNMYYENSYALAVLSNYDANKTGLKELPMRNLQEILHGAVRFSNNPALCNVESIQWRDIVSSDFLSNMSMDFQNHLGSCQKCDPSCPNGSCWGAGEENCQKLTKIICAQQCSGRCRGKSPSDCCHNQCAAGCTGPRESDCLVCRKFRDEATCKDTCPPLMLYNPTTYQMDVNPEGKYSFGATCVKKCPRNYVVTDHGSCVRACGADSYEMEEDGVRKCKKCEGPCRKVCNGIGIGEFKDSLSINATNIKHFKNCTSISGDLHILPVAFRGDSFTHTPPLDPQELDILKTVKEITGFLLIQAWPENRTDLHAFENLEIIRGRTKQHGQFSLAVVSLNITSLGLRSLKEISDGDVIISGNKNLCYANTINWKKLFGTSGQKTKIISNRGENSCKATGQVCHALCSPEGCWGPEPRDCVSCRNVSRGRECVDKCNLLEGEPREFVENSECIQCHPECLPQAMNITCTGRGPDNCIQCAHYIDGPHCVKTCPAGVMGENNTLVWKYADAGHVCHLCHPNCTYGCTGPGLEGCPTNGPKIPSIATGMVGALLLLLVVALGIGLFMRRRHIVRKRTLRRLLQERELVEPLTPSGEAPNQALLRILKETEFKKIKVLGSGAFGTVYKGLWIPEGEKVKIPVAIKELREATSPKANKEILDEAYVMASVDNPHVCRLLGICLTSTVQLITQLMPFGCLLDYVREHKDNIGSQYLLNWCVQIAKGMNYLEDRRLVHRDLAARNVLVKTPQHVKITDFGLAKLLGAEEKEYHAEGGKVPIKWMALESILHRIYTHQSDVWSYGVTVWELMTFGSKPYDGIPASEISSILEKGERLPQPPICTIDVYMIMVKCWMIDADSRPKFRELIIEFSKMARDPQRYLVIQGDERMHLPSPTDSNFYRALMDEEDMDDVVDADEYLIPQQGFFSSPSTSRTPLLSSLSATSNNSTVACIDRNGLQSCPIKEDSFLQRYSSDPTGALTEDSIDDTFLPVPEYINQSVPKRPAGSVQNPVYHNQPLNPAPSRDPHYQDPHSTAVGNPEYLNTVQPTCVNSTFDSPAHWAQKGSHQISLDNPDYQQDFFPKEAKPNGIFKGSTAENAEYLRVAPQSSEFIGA
Ba/F3-L858R/T790M/C797S, sequence (P00533 whole entry T790M/C797S/L858R): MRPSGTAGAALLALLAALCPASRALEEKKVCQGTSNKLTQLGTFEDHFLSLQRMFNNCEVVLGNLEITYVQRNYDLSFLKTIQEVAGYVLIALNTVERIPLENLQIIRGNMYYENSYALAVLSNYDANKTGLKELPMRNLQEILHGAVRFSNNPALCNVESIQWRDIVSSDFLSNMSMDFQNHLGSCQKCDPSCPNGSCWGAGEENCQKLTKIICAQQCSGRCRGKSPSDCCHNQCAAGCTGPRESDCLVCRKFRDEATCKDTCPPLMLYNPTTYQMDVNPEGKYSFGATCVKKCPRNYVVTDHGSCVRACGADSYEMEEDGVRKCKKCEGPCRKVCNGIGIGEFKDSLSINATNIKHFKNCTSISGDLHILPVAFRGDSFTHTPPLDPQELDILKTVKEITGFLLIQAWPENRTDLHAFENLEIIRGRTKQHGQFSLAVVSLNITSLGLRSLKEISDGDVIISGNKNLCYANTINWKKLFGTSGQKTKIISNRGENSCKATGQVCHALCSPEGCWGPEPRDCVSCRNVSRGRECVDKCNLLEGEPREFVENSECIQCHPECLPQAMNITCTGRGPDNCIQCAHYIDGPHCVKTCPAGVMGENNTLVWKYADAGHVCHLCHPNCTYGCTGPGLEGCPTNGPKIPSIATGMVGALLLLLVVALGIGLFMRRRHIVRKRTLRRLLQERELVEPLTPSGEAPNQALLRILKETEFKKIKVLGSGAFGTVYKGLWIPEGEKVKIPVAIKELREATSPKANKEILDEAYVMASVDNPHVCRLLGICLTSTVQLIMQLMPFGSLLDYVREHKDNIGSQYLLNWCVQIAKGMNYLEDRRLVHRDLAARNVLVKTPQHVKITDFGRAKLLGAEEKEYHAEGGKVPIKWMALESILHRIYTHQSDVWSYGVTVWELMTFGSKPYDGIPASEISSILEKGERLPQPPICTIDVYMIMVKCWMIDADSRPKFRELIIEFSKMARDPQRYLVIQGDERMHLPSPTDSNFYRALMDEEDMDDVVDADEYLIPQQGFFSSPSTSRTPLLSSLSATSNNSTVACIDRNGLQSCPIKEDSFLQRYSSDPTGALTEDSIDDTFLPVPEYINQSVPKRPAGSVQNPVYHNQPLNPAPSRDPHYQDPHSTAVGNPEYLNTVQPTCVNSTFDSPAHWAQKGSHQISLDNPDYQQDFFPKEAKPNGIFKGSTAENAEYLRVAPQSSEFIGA
Ba/F3-Del19/T790M/C797S, sequence (P00533 with tags, fused parts or gaps DEL746-750/T790M/C797S, form open): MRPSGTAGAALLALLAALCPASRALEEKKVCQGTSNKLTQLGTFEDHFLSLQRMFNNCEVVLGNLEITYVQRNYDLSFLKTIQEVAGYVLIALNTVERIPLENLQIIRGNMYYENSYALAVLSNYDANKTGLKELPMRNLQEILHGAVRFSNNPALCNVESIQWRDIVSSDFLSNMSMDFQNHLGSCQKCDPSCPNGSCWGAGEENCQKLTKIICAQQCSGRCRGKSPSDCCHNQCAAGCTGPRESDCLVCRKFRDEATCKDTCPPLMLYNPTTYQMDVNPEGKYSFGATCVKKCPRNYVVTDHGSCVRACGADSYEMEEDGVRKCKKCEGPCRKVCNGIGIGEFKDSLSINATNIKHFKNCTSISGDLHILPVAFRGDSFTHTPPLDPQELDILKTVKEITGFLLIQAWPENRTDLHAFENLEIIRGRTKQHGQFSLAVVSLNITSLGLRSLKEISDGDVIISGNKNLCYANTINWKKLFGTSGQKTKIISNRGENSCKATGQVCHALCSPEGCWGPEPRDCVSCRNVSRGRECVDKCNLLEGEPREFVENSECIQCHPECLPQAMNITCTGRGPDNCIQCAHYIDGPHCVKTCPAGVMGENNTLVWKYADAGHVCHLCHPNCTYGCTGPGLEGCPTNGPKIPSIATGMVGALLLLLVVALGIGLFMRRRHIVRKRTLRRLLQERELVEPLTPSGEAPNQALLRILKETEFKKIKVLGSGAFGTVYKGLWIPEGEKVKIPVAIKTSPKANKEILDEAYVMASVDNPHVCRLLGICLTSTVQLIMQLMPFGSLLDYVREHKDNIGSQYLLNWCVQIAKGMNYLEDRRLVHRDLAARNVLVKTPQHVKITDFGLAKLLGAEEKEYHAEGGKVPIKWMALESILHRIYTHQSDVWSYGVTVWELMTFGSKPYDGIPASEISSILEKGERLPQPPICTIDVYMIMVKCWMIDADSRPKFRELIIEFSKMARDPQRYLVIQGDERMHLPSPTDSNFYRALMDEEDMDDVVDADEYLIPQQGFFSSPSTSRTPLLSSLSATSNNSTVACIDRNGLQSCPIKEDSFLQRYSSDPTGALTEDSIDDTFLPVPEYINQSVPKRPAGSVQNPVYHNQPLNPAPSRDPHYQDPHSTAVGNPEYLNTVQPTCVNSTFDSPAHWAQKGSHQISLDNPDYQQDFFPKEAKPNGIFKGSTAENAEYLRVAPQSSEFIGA

GI50 (Ba/F3-Del19/T790M/C797S; class symbols) [nM] | GI50 (Ba/F3-L858R/T790M/C797S; class symbols) [nM] | IC50 (EGFR WT) [nM] | IC50 (EGFR L858R/T790M/C797S; class symbols) [nM] | IC50 (EGFR L858R/T790M/C797S; numeric values) [nM] | SMILES | IC50 (A431 (WT)) [nM] | GI50 (Ba/F3-Del19/T790M/C797S; numeric values) [nM] | GI50 (Ba/F3-L858R/T790M/C797S; numeric values) [nM] | AUC(0-t) [1] [ng·h/mL] | Cmax [1] [ng/mL] | Tmax [1] [h] | half-life [1] [h]
> 50 | > 50 | 167 | – | 11 | COc1cnc(Nc2ccc(N3CC4(CC(N)C4)C3)c(C)c2)nc1Nc1ccccc1P(C)(C)=O [Example 23, (2-((2-((4-(6-amino-2-azaspiro[3.3]heptan-2-yl)-3-methylphenyl)amino)-5-methoxypyrimidin-4-yl)amino)phenyl)dimethylphosphine oxide] | – | – | – | – | – | – | –
> 50 | > 50 | 127 | – | 4.4 | COc1cnc(Nc2ccc(N3CCC4(CC3)CC(N)C4)c(C)c2)nc1Nc1ccccc1P(C)(C)=O [Example 27, (2-((2-((4-(2-amino-7-azaspiro[3.5]nonan-7-yl)-3-methylphenyl)amino)-5-methoxypyrimidin-4-yl)amino)phenyl)dimethylphosphine oxide] | – | – | – | – | – | – | –
≤ 10 | 10 to 50 | – | – | 1.1 | CN(C)C1CC2(CCN(c3ccc(Nc4ncc(Cl)c(Nc5ccccc5P(C)(C)=O)n4)cc3F)CC2)C1 [Example 30, (2-((5-chloro-2-((4-(2-(dimethylamino)-7-azaspiro[3.5]nonan-7-yl)-3-fluorophenyl)amino)pyrimidin-4-yl)amino)phenyl)dimethylphosphine oxide] | 30 | – | – | – | – | – | –

More lines, now with the values behind:

SMILES | GI50 (Ba/F3-Del19/T790M/C797S; class symbols) [nM] | GI50 (Ba/F3-L858R/T790M/C797S; class symbols) [nM] | IC50 (EGFR WT) [nM] | IC50 (EGFR L858R/T790M/C797S; class symbols) [nM] | IC50 (EGFR L858R/T790M/C797S; numeric values) [nM] | IC50 (A431 (WT)) [nM] | GI50 (Ba/F3-Del19/T790M/C797S; numeric values) [nM] | GI50 (Ba/F3-L858R/T790M/C797S; numeric values) [nM] | AUC(0-t) [1] [ng·h/mL] | Cmax [1] [ng/mL] | Tmax [1] [h] | half-life [1] [h]
CNC1CCC2(CC1)CN(c1ccc(Nc3ncc(Cl)c(Nc4ccccc4P(C)(C)=O)n3)cc1C)C2 [Example 2, (2-((5-chloro-2-((3-methyl-4-(7-(methylamino)-2-azaspiro[3.5]nonan-2-yl)phenyl)amino)pyrimidin-4-yl)amino)phenyl)dimethylphosphine oxide] | 10 to 50 | 10 to 50 | 66 | 2 to 10 | – | – | – | – | – | – | – | –
CN(C)C1CC2(CCN(c3ccc(Nc4nccc(Nc5ccccc5P(C)(C)=O)n4)cc3Cl)CC2)C1 [Example 7, (2-((2-((3-chloro-4-(2-(dimethylamino)-7-azaspiro[3.5]nonan-7-yl)phenyl)amino)pyrimidin-4-yl)amino)phenyl)dimethylphosphine oxide] | > 50 | > 50 | – | – | 7.8 | 341 | – | – | – | – | – | –
CN(C)C1CCC2(CC1)CN(c1ccc(Nc3ncc(Cl)c(Nc4ccccc4P(C)(C)=O)n3)cc1Cl)C2 [Example 10, (2-((5-chloro-2-((3-chloro-4-(7-(dimethylamino)-2-azaspiro[3.5]nonan-2-yl)phenyl)amino)pyrimidin-4-yl)amino)phenyl)dimethylphosphine oxide] | – | – | – | – | 0.7 | 41.6 | 10.2 | 24.7 | 443 | 35.1 | 4 | 9.06
Cc1cc(Nc2ncc(Cl)c(Nc3ccccc3P(C)(C)=O)n2)ccc1N1CCC2(CC1)CC(N(C)C)C2 [Example 15, (2-((5-chloro-2-((4-(2-(dimethylamino)-7-azaspiro[3.5]nonan-7-yl)-3-methylphenyl)amino)pyrimidin-4-yl)amino)phenyl)dimethylphosphine oxide] | – | – | – | – | 0.7 | 27.6 | 15.5 | 17 | 6940 | 575 | 6 | 4.38
Cc1cc(Nc2ncc(C)c(Nc3ccccc3P(C)(C)=O)n2)ccc1N1CC2(CC(N)C2)C1 [Example 22, (2-((2-((4-(6-amino-2-azaspiro[3.3]heptan-2-yl)-3-methylphenyl)amino)-5-methylpyrimidin-4-yl)amino)phenyl)dimethylphosphine oxide] | > 50 | > 50 | 57 | 2 to 10 | – | – | – | – | – | – | – | –
Cc1cc(Nc2ncc(F)c(Nc3ccccc3P(C)(C)=O)n2)ccc1N1CC2(CC(N)C2)C1 [Example 24, (2-((2-((4-(6-amino-2-azaspiro[3.3]heptan-2-yl)-3-methylphenyl)amino)-5-fluoropyrimidin-4-yl)amino)phenyl)dimethylphosphine oxide] | > 50 | > 50 | 101 | – | 18 | – | – | – | – | – | – | –
Cc1cc(Nc2ncc(Cl)c(Nc3ccccc3P(C)(C)=O)n2)ccc1N1CC2(CC(N)C2)C1 [Example 25, (2-((2-((4-(6-amino-2-azaspiro[3.3]heptan-2-yl)-3-methylphenyl)amino)-5-chloropyrimidin-4-yl)amino)phenyl)dimethylphosphine oxide] | – | – | 28 | – | 1.5 | – | 18 | 24.2 | – | – | – | –
CP(C)(=O)c1ccccc1Nc1nc(Nc2ccc(N3CC4(CC(N)C4)C3)c(Cl)c2)ncc1Cl [Example 26, (2-((2-((4-(6-amino-2-azaspiro[3.3]heptan-2-yl)-3-chlorophenyl)amino)-5-chloropyrimidin-4-yl)amino)phenyl)dimethylphosphine oxide] | 10 to 50 | 10 to 50 | 37 | – | 1.7 | – | – | – | – | – | – | –
